# Source: PubChem BioAssay (NCI)
# “And” between values parts separate entries of the source, which are not always exact repeats. Equal entries are not always repeated.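 Interpolation was linear, between the two tested concentrations surrounding the appropriate level; five concentrations were tested over 48 hours in 96-well plates. GI50 = concentration required for 50% inhibition of growth. TGI: total growth inhibition.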
# Legend:
# Experiment in all cases: growth of human tumour cells (NCI), 48 h
# [1] = tested on: HOP-62 NSCLC
# [2] = tested on: SK-OV-3 ovarian
# [3] = tested on: HT29 colon
# [4] = tested on: CAKI-1 renal
# [5] = tested on: OVCAR-4 ovarian
# [6] = tested on: MALME-3M melanoma
# [7] = tested on: ACHN renal
# [8] = tested on: HOP-92 NSCLC
# [9] = tested on: SF-268 CNS
# [10] = tested on: SF-295 CNS
SMILES,GI50 [1],TGI [1],GI50 [2],TGI [2],GI50 [3],TGI [3],GI50 [4],TGI [4],GI50 [5],TGI [5],GI50 [6],TGI [6],GI50 [7],TGI [7],GI50 [8],TGI [8],GI50 [9],TGI [9],TGI [10],GI50 [10]
CCNC(=O)C[C@@H]1N=C(c2ccc(Cl)cc2)c2cc(OC)ccc2-n2c(C)nnc21,2.1 µM,> 100 µM,2.37 µM,> 100 µM,1.02 µM,> 100 µM,0.584 µM,> 100 µM,5.93 µM,> 100 µM,3.49 µM,> 100 µM,7.4 µM,> 100 µM,0.548 µM,> 100 µM,> 53.6 µM,> 100 µM,> 100 µM,
CN/N=C(/Cc1occc(=O)c1O)C(=O)Nc1ccc(C)c(C)c1,,> 100 µM,,> 100 µM,,> 100 µM,,> 100 µM,,> 100 µM,,> 100 µM,,> 100 µM,,> 100 µM,,> 100 µM,> 100 µM,
Cc1ccc(S(=O)(=O)N/N=C(\CCN2CCCC2)CC(c2ccccc2)c2c(O)c3ccccc3oc2=O)cc1 (stereo not drawn),,> 100 µM,,> 100 µM,,> 100 µM,,> 100 µM,,> 100 µM,,> 100 µM,,> 100 µM,,> 100 µM,,> 100 µM,> 100 µM,
Cc1ccc(Nc2nc(NCCO)c3ccccc3n2)cc1C,10.7 µM,24.1 µM,14.2 µM,27.6 µM,3.25 µM,10.6 µM,4.66 µM,17.8 µM,3.14 µM,15.6 µM,1.85 µM,3.77 µM,11 µM,23.9 µM,1.97 µM,8.03 µM,9.27 µM,22.2 µM,17.5 µM,4.37 µM
O=C(Nc1ccc(-c2nc3cc4ccccc4cc3[nH]2)cc1)c1cccc(Br)c1,7.28 µM,20.4 µM,16.3 µM,32.8 µM,2.77 µM,11.9 µM,27.5 µM,74.8 µM,2.88 µM,7.97 µM,12.8 µM,28.9 µM,12.3 µM,31 µM,4 µM,17.8 µM,9.22 µM,26.8 µM,48.1 µM,20.7 µM
O=[N+]([O-])c1ccc(N2CCN(Cc3ccccc3)CC2)c2c1no[n+]2[O-],1.22 µM,2.77 µM,1.98 µM,4.89 µM,0.829 µM,2.12 µM,1.42 µM,3.48 µM,1.37 µM,3.07 µM,1.6 µM,3.3 µM,0.85 µM,2.2 µM,1.07 µM,2.36 µM,1.42 µM,3.22 µM,2.84 µM,1.38 µM
CN(C)CCCCN1CCc2c(n(C)c3ccccc23)C1=O,,> 80.8 µM and 63.7 µM,,> 95 µM,,63.4 µM and 37.9 µM,,> 73.4 µM and 65.3 µM,,> 100 µM,,43.6 µM and 36.3 µM,,> 100 µM,,81.2 µM and > 90.7 µM,,> 76.3 µM and 57.6 µM,71.9 µM and 49.6 µM,
CC(=O)N(C)OC(=O)CC(=O)c1ccccc1,,> 100 µM,,> 100 µM,,> 100 µM,,> 100 µM,,> 100 µM,,> 100 µM,,> 100 µM,,> 100 µM,,> 100 µM,> 100 µM,
CCN(CC)CCCN(c1cc(OC)cc2nccnc12)S(=O)(=O)c1ccc(C)cc1,,> 100 µM,,> 100 µM,,> 100 µM,,> 100 µM,,> 100 µM,,> 100 µM,,> 100 µM,,> 100 µM,,> 100 µM,> 100 µM,
CC(C)(C)[Si](C)(C)OCC1CCC(n2cnc3c(NC(=O)c4ccccc4)ncnc32)O1 (stereo not drawn),,38 µM,,44.9 µM,,33.6 µM,,46.9 µM,,39.5 µM,,34.3 µM,,40.3 µM,,31.6 µM,,33.4 µM,35.8 µM,
CN1CCN(Cc2ccc(-c3cc4ncnc(Nc5ccc(OCc6cccc(F)c6)c(Cl)c5)c4s3)o2)CC1,4.64 µM,9.12 µM,4.67 µM,9.97 µM,1.38 µM,4.3 µM,3.33 µM,7.98 µM,3.69 µM,7.5 µM,4.56 µM,9.69 µM,3.26 µM,6.95 µM,2.76 µM,6.51 µM,4.07 µM,8.7 µM,10.4 µM,5.06 µM
Cc1[nH]c(=O)[nH]c(=O)c1N(CCF)CCCl,439 µM,872 µM and 1100 µM and 1150 µM,332 µM and 472 µM,741 µM and 1330 µM and 1240 µM,,1370 µM and 1230 µM,137 µM,634 µM and 711 µM,230 µM,461 µM and 755 µM,219 µM and 393 µM,410 µM and 757 µM and 721 µM,,1220 µM,153 µM,329 µM and 466 µM and 363 µM,192 µM and 329 µM,651 µM and 1120 µM and 1100 µM,600 µM and > 25 µM and 1140 µM,> 25 µM and 402 µM
CCN1C(=O)C/C(=C\C(C)=O)Nc2ccccc21,,> 100 µM,,> 100 µM,,> 100 µM,,> 100 µM,,> 100 µM,,> 100 µM,> 100 µM,> 100 µM,,> 100 µM,,> 100 µM,> 100 µM,
CNc1ccccc1C(=O)N/N=C/C=C/c1ccccc1,6.9 µM,> 61.6 µM,4.15 µM,> 100 µM,0.373 µM,12.9 µM,2.79 µM,> 100 µM,5.61 µM,> 48.5 µM,9.91 µM,97.4 µM,11.8 µM,> 100 µM,4.13 µM,57.9 µM,7.23 µM,> 100 µM,> 54.3 µM,1.57 µM
CC/C=C\C[C@H](O)C/C=C1/C(=O)C=C[C@@H]1C/C=C\CCCC(=O)NC(C)C,2.65 µM,6.59 µM,4.57 µM,14.8 µM,2.23 µM,4.11 µM,2.08 µM,4.39 µM,4.27 µM,18.4 µM,2.4 µM,6.69 µM,1.84 µM,3.49 µM,2.75 µM,6.08 µM,3 µM,13.3 µM,5.69 µM,2.42 µM
O=C(Cc1nc2ccccc2s1)C(=O)Nc1ccc(Cl)cc1,,> 100 µM,,> 100 µM,,> 100 µM,,> 100 µM,,> 100 µM,,> 100 µM,,> 100 µM,,> 100 µM,,> 100 µM,> 100 µM,
